Test results as given in patent publication US20060045953A1 (priority 2004, published 2006).
Like-named read-outs stand apart in the source and are kept apart here.

Assays:
[1] = target: T1, hT1R1/hT1R3 umami receptor (Homo sapiens, UniProt Q7RTX0+Q7RTX1); experiment: Umami taste enhancement assay: shift of the MSG EC50 (EC50 ratio vs. MSG); format: cell-based; conditions: Table E
T1 construct: expressed in transfected cells; host or cells: HEK293 derivative stably expressing Gα15, clone I-17, expression induced with mifepristone
T1 sequence (Q7RTX1 21-841): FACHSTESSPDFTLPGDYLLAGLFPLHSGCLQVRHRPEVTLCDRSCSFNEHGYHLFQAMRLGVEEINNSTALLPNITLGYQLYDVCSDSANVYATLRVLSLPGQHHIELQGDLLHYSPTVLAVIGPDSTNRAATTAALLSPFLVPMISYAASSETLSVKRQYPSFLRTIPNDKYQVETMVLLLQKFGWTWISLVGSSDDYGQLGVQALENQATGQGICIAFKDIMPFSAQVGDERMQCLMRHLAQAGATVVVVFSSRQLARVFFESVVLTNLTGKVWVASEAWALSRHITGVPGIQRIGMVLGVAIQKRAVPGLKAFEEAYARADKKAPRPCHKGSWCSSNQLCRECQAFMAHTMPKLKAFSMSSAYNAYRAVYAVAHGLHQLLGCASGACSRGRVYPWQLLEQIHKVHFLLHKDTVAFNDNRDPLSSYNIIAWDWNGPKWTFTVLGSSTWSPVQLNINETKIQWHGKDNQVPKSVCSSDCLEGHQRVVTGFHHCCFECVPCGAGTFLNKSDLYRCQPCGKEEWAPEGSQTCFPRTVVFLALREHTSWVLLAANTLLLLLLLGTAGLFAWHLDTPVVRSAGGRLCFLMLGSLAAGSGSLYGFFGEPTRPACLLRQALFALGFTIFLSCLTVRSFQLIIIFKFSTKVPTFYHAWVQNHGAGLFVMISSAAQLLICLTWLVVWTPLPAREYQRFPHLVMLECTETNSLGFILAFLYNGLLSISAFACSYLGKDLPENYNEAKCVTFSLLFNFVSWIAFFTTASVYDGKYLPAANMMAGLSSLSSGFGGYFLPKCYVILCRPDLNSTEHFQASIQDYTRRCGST
T1 sequence (Q7RTX0 21-852): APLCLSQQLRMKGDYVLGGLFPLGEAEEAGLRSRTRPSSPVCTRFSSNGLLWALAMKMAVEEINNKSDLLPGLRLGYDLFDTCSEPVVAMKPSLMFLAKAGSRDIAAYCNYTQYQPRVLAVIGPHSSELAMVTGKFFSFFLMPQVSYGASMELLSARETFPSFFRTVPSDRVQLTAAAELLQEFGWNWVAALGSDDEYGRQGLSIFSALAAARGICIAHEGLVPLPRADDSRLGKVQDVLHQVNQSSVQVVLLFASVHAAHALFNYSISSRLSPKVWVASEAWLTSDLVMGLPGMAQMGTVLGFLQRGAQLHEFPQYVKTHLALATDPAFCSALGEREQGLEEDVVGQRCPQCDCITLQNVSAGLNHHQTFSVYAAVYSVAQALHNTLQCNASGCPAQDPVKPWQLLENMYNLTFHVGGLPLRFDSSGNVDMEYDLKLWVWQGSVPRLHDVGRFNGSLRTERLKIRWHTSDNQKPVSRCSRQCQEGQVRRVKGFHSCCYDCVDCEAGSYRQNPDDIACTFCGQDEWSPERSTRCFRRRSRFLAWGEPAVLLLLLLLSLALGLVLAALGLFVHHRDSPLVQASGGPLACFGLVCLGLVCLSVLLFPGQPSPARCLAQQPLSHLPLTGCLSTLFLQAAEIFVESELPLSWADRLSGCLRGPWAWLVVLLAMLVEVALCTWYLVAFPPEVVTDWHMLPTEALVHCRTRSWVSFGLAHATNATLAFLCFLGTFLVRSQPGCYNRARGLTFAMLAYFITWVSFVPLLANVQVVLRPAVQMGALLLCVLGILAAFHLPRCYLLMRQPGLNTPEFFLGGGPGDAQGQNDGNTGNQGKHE
Method: A series of measurements of the dose response is run in solutions comprising MSG alone, then a second dose response is run with MSG in combination with predetermined amounts of a candidate compound of Formula (I) at the same time.
Typical compound concentrations tested were 30 μM, 10 μM, 3 μM, 1 μM, 0.3 μM, 0.1 μM and 0.03 μM. The relative efficacy of compounds of Formula (I) at enhancing the receptor was determined by calculating the magnitude of a shift in the EC50 for monosodium glutamate. Enhancement was defined as a ratio (EC50R) corresponding to the EC50 of monosodium glutamate, determined in the absence of the test compound, divided by the EC50 of monosodium glutamate, determined in the presence of the test compound.
Stated alternatively, “EC50 ratio” as compared to MSG is calculated based on the following definitions: EC50 Ratio vs. MSG=EC50 (MSG)/EC50 (MSG+[Compound]) • wherein “[compound]” refers to the concentration of the compound of Formula (I) used to elicit (or enhance or potentiate) the MSG dose response.

[2] = target: T2, hT1R2/hT1R3 sweet receptor (Homo sapiens, UniProt Q7RTX0+Q8TE23); experiment: In vitro hT1R2/hT1R3 sweet taste receptor activation assay (FLIPR, dose response); format: cell-based
T2 construct: expressed in transfected cells; host or cells: HEK293 derivative stably expressing Gα15, clone S-9
T2 sequence (Q8TE23 20-839): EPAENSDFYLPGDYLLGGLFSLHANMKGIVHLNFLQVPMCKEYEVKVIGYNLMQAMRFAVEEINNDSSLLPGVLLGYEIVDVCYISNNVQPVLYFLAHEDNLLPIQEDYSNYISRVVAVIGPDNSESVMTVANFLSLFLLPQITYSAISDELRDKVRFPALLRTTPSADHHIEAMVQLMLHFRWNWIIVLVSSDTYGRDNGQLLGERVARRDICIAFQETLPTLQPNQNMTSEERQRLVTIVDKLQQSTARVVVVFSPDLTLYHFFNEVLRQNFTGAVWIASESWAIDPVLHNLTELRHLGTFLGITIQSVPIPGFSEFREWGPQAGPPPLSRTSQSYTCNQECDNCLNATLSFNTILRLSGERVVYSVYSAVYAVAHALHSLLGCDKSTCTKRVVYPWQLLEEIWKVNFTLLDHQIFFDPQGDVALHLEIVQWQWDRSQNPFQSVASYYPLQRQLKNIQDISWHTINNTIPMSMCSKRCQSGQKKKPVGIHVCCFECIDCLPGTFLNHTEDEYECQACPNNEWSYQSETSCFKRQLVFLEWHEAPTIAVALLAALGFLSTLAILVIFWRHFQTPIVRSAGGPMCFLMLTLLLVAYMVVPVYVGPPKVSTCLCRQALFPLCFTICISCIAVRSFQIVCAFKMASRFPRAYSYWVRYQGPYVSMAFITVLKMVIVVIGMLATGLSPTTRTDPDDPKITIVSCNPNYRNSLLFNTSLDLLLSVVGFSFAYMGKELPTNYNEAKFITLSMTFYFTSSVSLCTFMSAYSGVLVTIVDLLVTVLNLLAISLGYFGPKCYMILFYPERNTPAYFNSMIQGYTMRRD
T2 sequence (Q7RTX0 21-852): T1 sequence (Q7RTX0 21-852)
Method in brief: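 Dose-response at 10 concentrations (60 nM–30 µM, duplicates) measured as Fluo-3AM calcium fluorescence on FLIPR in hT1R2/hT1R3 S-9 cells, in D-PBS at room temperature. Responses scaled to 400 mM D-fructose. EC50s from regression with all curve parameters floating.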

[3] = system: human subjects; experiment: "Difference from Reference" human taste test (sweetness); format: in vivo
From the text: To determine how the intensity of a test sample of an experimental compound differs from that of a reference sample in terms of sweetness. This type of study requires a larger panel (typically 15-20 Subjects) in order to obtain statistically significant data.
Subjects rate the difference in intensity of the test sample compared to the reference sample for the key attribute on a scale of −5 (much less sweet than the reference) to +5 (much more sweet than the reference). A score of 0 indicates the test sample is equally as sweet as the reference.
Ten or more Subjects are used for the “Difference from Reference” tests. Subjects have been previously familiarized with the key attribute taste and are trained to use the −5 to +5 scale. Subjects refrain from eating or drinking (except water) for at least 1 hour prior to the test. Subjects eat a cracker and rinse with water four times to clean the mouth.
Test solutions can include the experimental compound in water, the experimental compound plus a key tastant (e.g., 4% sucrose, 6% sucrose, 6% fructose, 6% fructose/glucose, or 7% fructose/glucose, at pH 7.1 or 2.8), and a range of key tastant only solutions as references.
Samples of the key tastant without the experimental compound are used to determine if the panel is rating accurately; i.e., the reference is tested against itself (blind) to determine how accurate the panel is rating on a given test day. The solutions are dispensed in 10 ml volumes into 1 oz. sample cups and served to the Subjects at room temperature.
Subjects first taste the reference sample then immediately taste the test sample and rate the difference in intensity of the key attribute on the Difference from Reference scale (−5 to +5). All samples are expectorated. Subjects may retaste the samples but can only use the volume of sample given. Subjects must rinse at least twice with water between pairs of samples. Eating a cracker between sample pairs may be required depending on the samples tasted.
The scores for each test are averaged across Subjects and standard error is calculated. Panel accuracy can be determined using the score from the blind reference test. ANOVA and multiple comparison tests (such as Tukey's Honestly Significant Difference test) can be used to determine differences among pairs, provided the reference sample is the same among all tests. If the identical test pair is tested in another session, a Student's t-test (paired, two-tailed; alpha=0.05) can be used to determine if there is any difference in the ratings between sessions.
A number of different reference sweeteners have been utilized for the measurement of sweet taste enhancement. […]

[4] = read-out: EC50 for activation of a hT1R2/hT1R3 sweet receptor expressed in an HEK293 cell line

For `O=C(N[C@@H]1CCc2ccccc21)c1cccc(Cl)c1O` [Example E127, (R)-3-chloro-N-(2,3-dihydro-1H-inden-1-yl)-2-hydroxybenzamide], the “Umami EC50 ratio” value [1] was 2.81 (10 M cpd) and the EC50 ([2]; Table E, Sweet Enhancer Amides, read-out: Sweet EC50) was 950 nM.
With `COc1cccc2c1CCC[C@H]2NC(=O)c1cccc(Cl)c1O` [Example 177, (R)-3-Chloro-2-hydroxy-N-(5-methoxy-1,2,3,4-tetrahydronaphthalen-1-yl) benzamide] the EC50 [2, 4] was 180 nM, the “Perceived Equivalent Sweet Solution” value ([3]; 3 μM compound + 6% fructose/glucose, pH 7.1) was “Equal to 10% fructose/glucose” and the melting point was 175 to 176 °C.
In the case of `Cc1cc(C)c2c(c1)[C@H](NC(=O)c1conc1C)CCC2` [Example 176, (R)—N—(5,7-Dimethyl-1,2,3,4-tetrahydronaphthalen-1-yl)-3-methylisoxazole-4-carboxamide], the EC50 [2, 4] is reported as 520 nM, the “Perceived Equivalent Sweet Solution” value ([3]; 10 μM compound + 7% fructose/glucose, pH 2.8) is reported as “Equal to 10.5% fructose/glucose” and the “Perceived Equivalent Sweet Solution” value ([3]; 10 μM compound + 7% fructose/glucose, pH 7.1) is reported as “Equal to 10% fructose/glucose”. It also gave a melting point of 124 to 125 °C.
For `Cc1nocc1C(=O)N[C@@H]1CCCc2ccccc21` [Example 175, 3-Methyl-isoxazole-4-carboxylic acid (1,2,3,4-tetrahydro-naphthalen-1-yl)-amide], the EC50 [2, 4] was 5800 nM and the “Perceived Equivalent Sweet Solution” value ([3]; 50 μM compound + 4% sucrose, pH not measured or controlled) was 6% sucrose.
